Assay results: ChEMBL document CHEMBL4680334, “Fluorescent image-based high-content screening of extracts of natural resources for cell cycle inhibitors and identification of a new sesquiterpene quinone from the sponge, Dactylospongia metachromia” (Bioorg Med Chem, 2021)
The source made the active and inactive calls. No cut-off for these calls is given here.

How the values were obtained:
[1] = system: HeLa; test: Inhibition of cell cycle progression in human HeLa cells harboring Fucci2 assessed as cell cycle arrest at S phase at 2 times of IC50 incubated for 2 days by fluorescence microscopic analysis; type: functional, cell-based; conditions: time 2.0 day
[2] = system: HeLa; test: Inhibition of cell cycle progression in human HeLa cells harboring Fucci2 assessed as cell cycle arrest at G2/M phase at 2 times of IC50 incubated for 2 days by fluorescence microscopic analysis; type: functional, cell-based; conditions: time 2.0 day
[3] = system: HeLa; test: Induction of cell cycle arrest in human HeLa cells assessed as accumulation in G2/M phase at 15 uM incubated for 1 day by propidium iodide staining based flow cytometry analysis (reference value: 14.2 %); type: functional
[4] = system: HeLa; test: Induction of cell cycle arrest in human HeLa cells assessed as accumulation at G1 phase at 15 uM incubated for 1 day by propidium iodide staining based flow cytometry analysis (reference value: 59.7 %); type: functional
[5] = system: HeLa; test: Cytotoxicity against human HeLa cells harboring Fucci2 assessed as reduction in cell growth incubated for 3 days by MTT assay; type: functional, cell-based; conditions: 72 h
[6] = system: HeLa; test: Induction of cell cycle arrest in human HeLa cells assessed as accumulation at S phase at 15 uM incubated for 1 day by propidium iodide staining based flow cytometry analysis (reference value: 26.1 %); type: functional

SMILES: CC1=CCC[C@H]2[C@](C)(CC3=C(O)C(=O)C=C(N)C3=O)[C@@H](C)CC[C@]12C
- inhibition [1]: Active
- inhibition [2]: Active
- Activity [3]: 26.3%
- Activity [4]: 27.2%
- IC50 [5]: 18 µM
- Activity [6]: 46.5%

SMILES: COC(=O)c1ccc(O)c(C[C@]2(C)[C@@H](C)CC[C@]3(C)C(C)=CCC[C@@H]23)c1
- inhibition [1]: inactive
- inhibition [2]: inactive
- IC50 [5]: 13 µM

SMILES: CC1=CCC[C@H]2[C@](C)(CC3=C(O)C(=O)C=C(NCCC[S+](C)[O-])C3=O)[C@@H](C)CC[C@]12C (stereo partly drawn) [NAKIJIQUINONE I]
- inhibition [1]: Active
- inhibition [2]: Active
- IC50 [5]: 16 µM

SMILES: CC1=CCC[C@H]2[C@](C)(CC3=C(O)C(=O)C=C(NCCC(C)C)C3=O)[C@@H](C)CC[C@]12C [NAKIJIQUINONE N]
- inhibition [1]: Active
- inhibition [2]: Active
- IC50 [5]: 30 µM

SMILES: CC1=CCC[C@H]2[C@](C)(CC3=C(O)C(=O)C=C(NCCc4ccccc4)C3=O)[C@@H](C)CC[C@]12C [NAKIJIQUINONE Q]
- inhibition [1]: Active
- inhibition [2]: Active
- IC50 [5]: 36 µM
